Experimental data from publication PMC8205030, “Methoxy and bromo scans on N-(5-methoxyphenyl) methoxybenzenesulphonamides reveal potent cytotoxic compounds, especially against the human breast adenocarcinoma MCF7 cell line” (Journal of Enzyme Inhibition and Medicinal Chemistry, 2021).
Where two headings read alike, the source gives them in different places.

Columns and labels:
[1] = target: T1, microtubular protein isolated from calf brain (Bos taurus, UniProt P81947+Q6B856); assay: Inhibition of tubulin polymerisation (turbidity); type: biochemical; settings: for TPI % 10 µM: 10 µM compound, 1.5 mg/mL microtubular protein; for IC50: in vitro tubulin polymerisation inhibition, read-out: TPI IC50
T1 construct: isolated from calf brain according to the modified Shelanski method; from tissue; host or cells: calf brain
Description: Microtubular protein was isolated from calf brain according to the modified Shelanski method[23]^,[24] by two cycles of temperature-dependent assembly/disassembly and stored at −80 °C. Before each use, protein concentration is determined by Bradford method[25] taking BSA as standard. Tubulin polymerisation was monitored using a Helios α spectrophotometer by measuring the increase in turbidity at 450 nm, caused by a shift from 4 °C to 37 °C, which allows the in vitro microtubular protein to depolymerise and to polymerise, respectively. The assay was carried out in quartz cuvettes containing 1.5 mg/mL microtubular protein and the ligand (except for control cuvette with only DMSO at the same concentration) in a mixture of 0.1 M MES buffer, 1 mM EGTA, 1 mM MgCl2, 1 mM β-ME, and 1.5 mM GTP at pH 6.7 (final volume 500 µL). Cuvettes were preincubated at 20 °C for 30 min, to allow ligand binding to tubulin, and subsequently cooled on ice for 10 min. Then, the experiment starts at 4 °C to establish the initial baseline. The assembly process was initiated by a temperature shift to 37 °C and the turbidity produced by tubulin polymerisation can be measured by an absorbance increase. After reaching a stable plateau, the temperature was switched back to 4 °C to return to the initial absorption values (to confirm the reversible nature of the monitored process and to determine whether or not the microtubular protein has stabilized). The difference in amplitude between the stable plateau and the initial baseline of the curves was taken as the degree of tubulin polymerisation for each experiment. […] All compounds were tested at 10 µM concentration. IC50 values were calculated for compounds that inhibit tubulin polymerisation more than 50% at 10 µM. […] All the measurements were carried out in at least two independent experiments using microtubular protein from different preparations.

[2] = system: HeLa (human cervical carcinoma) cells; assay: Cell growth assay (XTT), HeLa; type: cell-based; settings: 72 h drug exposure, read-out: Antiproliferative activity IC50 HeLa
Description: (§1) The presence of mycoplasma was routinely checked with MycoAlert kit (Lonza-Cambrex) and only mycoplasma-free cells were used in the experiments. Tumour cell lines were kindly provided by Dr Faustino Mollinedo from Centro de Investigaciones Biológicas Margarita Salas, Madrid, Spain. To determine cell growth, cells in exponential growth phase were seeded (100 µL/well in 96-well plates) with appropriate cell concentration (1.5 × 10^4 cells/mL for MCF7, HeLa and HEK-293 and 3 × 10^4 cells/mL for HT-29) in complete DMEM or RPMI 1640 medium (see above) at 37 °C and 5% CO2 atmosphere. After 24 h incubation, to allow cells to attach to the plates, all compounds were added at 1 µM concentration (10 µL/well in 96-well plates) and the effect on the proliferation was evaluated 72 h post-treatment. Compounds showing antiproliferative effects at tested concentration were selected for IC50 calculation (50% inhibitory concentration compared to the untreated controls) from 10^−5 to 10^−10 M concentration. Nonlinear curves fitting the experimental data were carried out for each compound. […] A freshly prepared mixture solution of XTT labelling reagent with 0.02% (v/v) PMS (N-methyl-dibenzopyrazine methyl sulfate) electron coupling reagent was added to cells (50 µL/well in 96-well plates, the total volume of 160 µL/well) and were incubated during the corresponding time according to each cell line (4 h for MCF7 and HeLa and 6 h for HT-29 and HEK-293) in a humidified atmosphere (37 °C, 5% CO2). The absorbance of the formazan product generated was measured at a test wavelength of 450 nm using a multi-well plate reader (Ultra Evolution, Tecan, Männedorf, Suiza). Compounds were dissolved in DMSO and the final solvent concentrations never exceeded 0.5% (v/v). The control wells included treated cells with 0.5% (v/v) DMSO and the positive control. 10 µM verapamil was included as a control for the HT-29 cell line. Measurements were performed in triplicate, and each experiment was repeated three times.

[3] = system: MCF7 (human breast carcinoma) cells; assay: Cell growth assay (XTT), MCF7; type: cell-based; settings: for IC50: Homo sapiens, MCF7, 72 h drug exposure, XTT, read-out: Antiproliferative activity IC50 MCF7
Description: as §1

[4] = system: HT-29 (human colon carcinoma) cells; assay: Cell growth assay (XTT), HT-29, alone or with verapamil; type: cell-based
Description: as §1, with “Compounds showing antiproliferative effects at tested concentration were selected for IC50 calculation (50% inhibitory concentration compared to the untreated controls) from 10^−5 to 10^−10 M concentration.” left out

[5] = Homo sapiens, HT-29, 72 h drug exposure, XTT, read-out: Antiproliferative activity IC50 HT-29
[6] = 72 h, in the presence of Pgp/MDR1 inhibitor verapamil (10 µM), read-out: Antiproliferative activity IC50 HT-29 Verap

T1 sequence (Q6B856 whole entry): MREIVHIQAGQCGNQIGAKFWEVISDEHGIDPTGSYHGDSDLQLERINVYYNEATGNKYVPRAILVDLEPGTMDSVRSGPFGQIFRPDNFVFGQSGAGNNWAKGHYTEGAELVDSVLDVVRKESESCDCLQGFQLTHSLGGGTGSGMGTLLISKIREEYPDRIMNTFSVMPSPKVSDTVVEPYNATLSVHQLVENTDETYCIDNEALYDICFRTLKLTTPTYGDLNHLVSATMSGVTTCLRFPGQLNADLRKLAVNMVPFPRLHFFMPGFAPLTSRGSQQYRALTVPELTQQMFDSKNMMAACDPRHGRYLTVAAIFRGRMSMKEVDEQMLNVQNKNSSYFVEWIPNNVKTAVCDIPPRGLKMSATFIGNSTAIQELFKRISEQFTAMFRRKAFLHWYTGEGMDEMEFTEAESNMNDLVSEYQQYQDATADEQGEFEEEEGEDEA
T1 sequence (P81947 whole entry): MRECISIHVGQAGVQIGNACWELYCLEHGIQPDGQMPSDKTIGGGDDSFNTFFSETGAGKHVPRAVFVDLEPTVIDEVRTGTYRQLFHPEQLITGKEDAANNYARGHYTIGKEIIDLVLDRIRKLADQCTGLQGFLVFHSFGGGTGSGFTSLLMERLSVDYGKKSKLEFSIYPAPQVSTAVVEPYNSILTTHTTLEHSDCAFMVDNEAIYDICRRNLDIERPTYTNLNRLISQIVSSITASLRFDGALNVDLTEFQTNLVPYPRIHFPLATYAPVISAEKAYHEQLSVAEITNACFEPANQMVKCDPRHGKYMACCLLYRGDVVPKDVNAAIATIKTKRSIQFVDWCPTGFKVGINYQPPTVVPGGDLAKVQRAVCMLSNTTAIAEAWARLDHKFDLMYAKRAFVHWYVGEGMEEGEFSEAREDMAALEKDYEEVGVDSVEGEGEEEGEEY

Structure (SMILES) | TPI % 10 µM [1] [%] | IC50 [1] [nM] | IC50 [2] [nM] | IC50 [3] [nM] | melting point [°C] | IC50 [4, 5] [nM] | IC50 [4, 6] [nM] | Difference in HT-29 IC50 values from co-treatment with MDR inhibitor ([4]; without vs with verapamil 10 µM) | Fold more potent against MCF7 than against HeLa ([3]; ratio of IC50 values)
COc1ccc(S(=O)(=O)Nc2cccnc2Nc2ccc(O)cc2)cc1 [ABT-751, reference compound] | 69 | 4400 | 388 | 180 | – | – | – | – | –
COc1ccc(S(=O)(=O)Nc2cc(OC)cc(OC)c2)cc1 [Compound 1, N-(3,5-dimethoxyphenyl)-4-methoxybenzenesulphonamide] | 0 | > 10000 | > 1000 | > 1000 | 115 to 122 | > 1000 | – | – | –
COc1ccc(S(=O)(=O)N(CC#N)c2cc(OC)cc(OC)c2)cc1 [Compound 4, N-(cyanomethyl)-N-(3,5-dimethoxyphenyl)-4-methoxybenzenesulphonamide] | 0 | > 10000 | > 1000 | > 1000 | 92 to 96 | > 1000 | – | – | –
COc1ccc(S(=O)(=O)N(Cc2ccccc2)c2cc(OC)cc(OC)c2)cc1 [Compound 6, N-benzyl-N-(3,5-dimethoxyphenyl)-4-methoxybenzenesulphonamide] | 0 | > 10000 | > 1000 | > 1000 | 146 to 150 | > 1000 | – | – | –
COc1ccc(S(=O)(=O)N(C(=O)OCc2ccccc2)c2cc(OC)cc(OC)c2)cc1 [Compound 7, Benzyl (3,5-dimethoxyphenyl)((4-methoxyphenyl)sulphonyl)carbamate] | 0 | > 10000 | > 1000 | > 1000 | 129 to 131 | > 1000 | – | – | –
COc1ccc(S(=O)(=O)N(Cc2ccccc2)c2cc(OC)c(Br)c(OC)c2)cc1 [Compound 10a, N-benzyl-N-(4-bromo-3,5-dimethoxyphenyl)-4-methoxybenzenesulphonamide] | 0 | > 10000 | 310 | 335 | – | 450 | 533 | – | –
COc1ccc(S(=O)(=O)N(Cc2ccccc2)c2cc(OC)cc(OC)c2Br)cc1 [Compound 10b, N-benzyl-N-(2-bromo-3,5-dimethoxyphenyl)-4-methoxybenzenesulphonamide] | 0 | > 10000 | > 1000 | > 1000 | – | > 1000 | – | – | –
COc1ccc(S(=O)(=O)N(Cc2ccccc2)c2cc(OC)c(Br)c(OC)c2Br)cc1 [Compound 10c, N-benzyl-N-(2,4-dibromo-3,5-dimethoxyphenyl)-4-methoxybenzenesulphonamide] | 0 | > 10000 | > 1000 | > 1000 | – | > 1000 | – | – | –
COc1ccc(S(=O)(=O)Nc2cc(OC)c(OC)c(OC)c2)cc1 [TMP[41], N-(3,4,5-trimethoxyphenyl)-4-methoxyphenylsulphonamide, reference compound] | – | – | 240 | – | – | – | 975 | – | –

Continued, in another order:

TPI % 10 µM [1] [%] | IC50 [1] [nM] | IC50 [2] [nM] | IC50 [3] [nM] | melting point [°C] | IC50 [4, 5] [nM] | IC50 [4, 6] [nM] | Difference in HT-29 IC50 values from co-treatment with MDR inhibitor ([4]; without vs with verapamil 10 µM) | Structure (SMILES) | Fold more potent against MCF7 than against HeLa ([3]; ratio of IC50 values)
0 | > 10000 | > 1000 | > 1000 | 109 to 118 | > 1000 | – | – | CCN(c1cc(OC)cc(OC)c1)S(=O)(=O)c1ccc(OC)cc1 [Compound 3, N-(3,5-dimethoxyphenyl)-N-ethyl-4-methoxybenzenesulphonamide] | –
0 | > 10000 | > 1000 | > 1000 | – | > 1000 | – | – | CCOC(=O)CN(c1cc(OC)cc(OC)c1)S(=O)(=O)c1ccc(OC)cc1 [Compound 5, Ethyl N-(3,5-dimethoxyphenyl)-N-((4-methoxyphenyl)sulphonyl)glycinate] | –
10 | > 10000 | 497 | 99 | – | 495 | 293 | – | COc1ccc(S(=O)(=O)N(C)c2cc(OC)c(Br)c(OC)c2)cc1 [Compound 8a, N-(4-bromo-3,5-dimethoxyphenyl)-4-methoxy-N-methylbenzenesulphonamide] | 4–7 fold
0 | > 10000 | 417 | – | – | 610 | – | – | CCN(c1cc(OC)c(Br)c(OC)c1)S(=O)(=O)c1ccc(OC)cc1 [Compound 9a, N-(4-bromo-3,5-dimethoxyphenyl)-N-ethyl-4-methoxybenzenesulphonamide] | –
28 | > 10000 | 577 | 700 | – | 2100 | 867 | – | CCOC(=O)CN(c1cc(OC)c(Br)cc1OC)S(=O)(=O)c1ccc(OC)cc1 [Compound 26, Ethyl N-(4-bromo-2,5-dimethoxyphenyl)-N-((4-methoxyphenyl)sulphonyl)glycinate] | –
44 | > 10000 | 377 | 220 | – | 525 | 170 | higher than 3 fold | CCOC(=O)N(c1cc(OC)c(Br)cc1OC)S(=O)(=O)c1ccc(OC)cc1 [Compound 27, Ethyl (4-bromo-2,5-dimethoxyphenyl)((4-methoxyphenyl)sulphonyl)carbamate] | –
32 | > 10000 | 495 | – | – | 860 | – | – | COc1ccc(S(=O)(=O)N(CC2CO2)c2cc(OC)c(Br)cc2OC)cc1 (stereo not drawn) [Compound 28, N-(4-bromo-2,5-dimethoxyphenyl)-4-methoxy-N-(oxiran-2-ylmethyl)benzenesulphonamide] | –
7 | > 10000 | 833 | – | 130 to 139 | 1250 | – | – | COc1ccc(S(=O)(=O)N(Cc2ccccc2)c2cc(OC)c(OC)cc2OC)cc1 [Compound 37, N-benzyl-4-methoxy-N-(2,4,5-trimethoxyphenyl)benzenesulphonamide] | –
